Reference: PubChem BioAssay (NCI)
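Values below derive from 48-hour exposures of cells grown in 96-well plates, with endpoints linearly interpolated between the two concentrations bracketing the appropriate inhibition level. GI50 marks 50% less growth. TGI: total growth inhibition.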

Experiments:
Assay in all cases: growth of human tumour cells (NCI), 48 h
SF-295 CNS = test system: SF-295 CNS
OVCAR-4 ovarian = test system: OVCAR-4 ovarian
HOP-92 NSCLC = test system: HOP-92 NSCLC
T-47D breast = test system: T-47D breast
MCF7 breast = test system: MCF7 breast
SK-MEL-5 melanoma = test system: SK-MEL-5 melanoma
UACC-257 melanoma = test system: UACC-257 melanoma
HCT-116 colon = test system: HCT-116 colon
MDA-MB-231 breast = test system: MDA-MB-231 breast
HT29 colon = test system: HT29 colon

SMILES | TGI (SF-295 CNS) [µM] | TGI (OVCAR-4 ovarian) [µM] | TGI (HOP-92 NSCLC) [µM] | TGI (T-47D breast) [µM] | TGI (MCF7 breast) [µM] | TGI (SK-MEL-5 melanoma) [µM] | TGI (UACC-257 melanoma) [µM] | TGI (HCT-116 colon) [µM] | TGI (MDA-MB-231 breast) [µM] | TGI (HT29 colon) [µM] | GI50 (SF-295 CNS) [µM] | GI50 (OVCAR-4 ovarian) [µM] | GI50 (HOP-92 NSCLC) [µM] | GI50 (T-47D breast) [µM] | GI50 (MCF7 breast) [µM] | GI50 (SK-MEL-5 melanoma) [µM] | GI50 (UACC-257 melanoma) [µM] | GI50 (HCT-116 colon) [µM] | GI50 (MDA-MB-231 breast) [µM] | GI50 (HT29 colon) [µM]
O=C(/C=C/c1ccccc1)CCc1c(O)c2ccccc2oc1=O | > 100 | > 100 | > 100 | > 100 | > 100 | > 100 | > 100 | > 100 | > 100 | > 100 |  |  |  |  |  |  |  |  |  | 
O=S1(=O)CC(Br)C(Br)C1 (stereo not drawn) | > 100 | 18.4 | 7.43 | 13.6 | 11.7 | 10.3 | 51.2 | 6.53 | 10.3 | 11.3 | 24.5 | 3.11 | 2.35 | 3.16 | 2.72 | 2.3 | 4.94 | 2.34 | 3.15 | 3.71
Cc1cc(Cl)ccc1NC(=O)NC(C)(C)COC(=O)Nc1cccc(Cl)c1 | 8.31 | 90.6 | 26.4 | > 100 | 24.4 | 25 | 42.5 | > 100 | 26 | 39.4 | 0.945 | 6.55 | 3.48 | 5.55 | 2.49 | 6.7 | 8.23 | 6.3 | 5.45 | 7.42
COc1cccc2ccc3c(c12)C(=O)OC31CCc2c(C)cccc21 (stereo not drawn) | > 46.4 | > 46.4 | 87.9 | > 100 | 41.9 | 19.5 | > 100 | > 31.6 | > 100 | > 31.6 |  |  |  |  |  |  |  |  |  | 
N#C/C(=C\c1cccnc1)c1nc2ccccc2o1 | > 100 | > 100 | > 100 | > 100 | > 100 | > 100 | > 100 | > 100 | > 100 | > 100 | > 100 | > 100 | 40.8 | > 100 | > 100 | > 100 | > 100 | > 100 | > 100 | > 100
N#Cc1ccc2c(c1)C(=O)c1c-2n(CCCN=[N+]=[N-])c(=O)c2cc([N+](=O)[O-])ccc12 | > 50 | > 50 | 40.1 | > 50 | > 50 | > 50 | > 50 | > 50 | > 50 | > 50 | 8 | > 50 | 5.55 | 8.63 | 1.35 | > 50 | > 50 | 3.91 | > 50 | 32.1
CCC(=O)OC1=CN2C(=NC(c3ccc(N)cc3)=CC2c2cc(OC)c(OC)c(OC)c2)S1 (stereo not drawn) | 13.1 | 31.9 | 7.37 | 30.8 | 14.4 | 12 | 19.9 | 13.1 | 21.3 | 14.2 | 3.48 | 4.14 | 1.76 | 4.01 | 2.86 | 2.89 | 5.96 | 3.51 | 4.39 | 3.82
COc1cc(/C=C/c2cc(/C=C/c3ccc(O)c(OC)c3)[nH]c(=O)n2)ccc1O | 9.87 | 16.8 | 9.24 | 36.9 | 11.4 | 36.1 | 17.9 | 12.4 | > 100 | 2.67 | 2.75 | 2.46 | 2.28 | 6.5 | 2.96 | 3.7 | 3.36 | 2.48 | 3.59 | 1.3
COc1cc(/C=C\c2cc(OC)c(OC)c(OC)c2)cc(NS(=O)(=O)c2cccc(Cl)c2)c1OC | > 100 | > 100 | > 100 | > 100 | > 100 | 0.519 | > 100 | > 100 | > 100 | > 100 | 0.0453 | 0.248 | 0.0715 | 39.5 | 0.0533 | 0.229 | 20.3 | 0.0368 | 0.259 | 0.0441
CN(C)CCNc1c2c(c(NCCN(C)C)c3c(CO)c[nH]c13)C(=O)c1ccccc1C2=O | 17.8 | 11.5 | 13.1 | 48.2 | > 34.1 | 4.67 | > 76.2 | 10.9 | 10.7 | > 23.2 | 3.39 | 2.58 | 2.89 | 22.1 | 1.97 | 1.81 | 9.85 | 0.721 | 2.29 | 1.4
C(#Cc1ccccc1C#Cc1ccccn1)c1ccccn1 | 33.3 | > 100 | 12.2 | 46.3 | 38.2 | 30.9 | 39.8 | > 100 | 36.6 | > 100 | 16.8 | 38 | 1.96 | 19.4 | 14.3 | 15.5 | 19.3 | 26.4 | 16.6 | 30.3
CC[C@H](C)[C@H](NC(=O)c1nccn1C)C(=O)N(C)[C@H](C[C@@H](OC(C)=O)c1nc(C(=O)N[C@@H](Cc2ccccc2)C[C@H](C)C(=O)OC)cs1)C(C)C | 2.07 | > 33.3 | > 33.3 | > 33.3 | > 33.3 | 3.67 |  | > 33.3 | 22 | 11.1 | 0.639 | 1.88 | 4.86 | > 33.3 | 0.187 | 0.668 |  | 0.724 | 1.17 | 1
S=c1[nH]nc(SCc2ccccc2Cl)c2[nH]cnc12 | > 100 | > 100 | > 100 | > 100 | > 100 | > 100 | > 100 | > 100 | > 100 | > 100 |  |  |  |  |  |  |  |  |  | 
CC(C)(O)CCC(O)C(C)(O)C1CCC2(O)C3=CC(=O)C4(O)CC(O)C(O)CC4(C)C3CCC12C (stereo not drawn) (tested in a mixture with another compound) | > 100 | > 100 | > 100 | > 100 | > 100 | > 100 | > 100 | > 100 | > 100 | > 100 |  |  |  |  |  |  |  |  |  | 
